Experimental data as given in PubChem BioAssay AID1963597 (National Center for Advancing Translational Sciences (NCATS), 2024).

The molecules below were run on human liver microsomes, metabolic stability half-life (assay: NCATS Human Liver Microsomal (HLM) Stability Profiling). Conditions: higher = more stable; screened at 1 µM (by protocol).
Method in brief: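 Half-life derived from parent loss over 0–60 min (0, 5, 10, 15, 30, 60 min) at 37 °C. Incubations: 0.5 mg/mL microsomes, 1 µM test article, NADPH regeneration, pH 7.4 phosphate; quenched in acetonitrile containing albendazole, analysed by MS.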

Row | Compound | half-life
1 | CCCCNc1ncc2c(-c3ccc(F)cc3)nn(CC3CCC(N)CC3)c2n1 (centres undefined) | > 120 min
2 | C(#Cc1cccc(CN2CCOCC2)c1)CCN1CCCCC1 | > 120 min
3 | CN1CCC(Nc2ncc3ncnc(Nc4ccc(F)c(Cl)c4)c3n2)CC1 | 116 min
4 | CCN(CC)CCCN(c1ccccc1)C1Cc2ccccc2C1 | 11.5 min
5 | CNC(=O)c1ccccc1Nc1nc(Nc2ccc(N3CCOCC3)cc2OC)ncc1Cl | 34.9 min
6 | COc1cc(Nc2nc3ccccc3nc2NS(=O)(=O)c2cccc(NC(=O)c3ccc(C)c(OC)c3)c2)cc(OC)c1 | 14 min
7 | CC(C)CCC(=O)CC1c2ccccc2C(=O)N1c1ccc2ccc(Cl)nc2n1 (centres undefined) | 7.76 min
8 | COc1cc2cc(CN3CCC(N(C)C)C3)c(-c3cccc(Cl)c3)nc2cc1OC (centres undefined) | > 120 min
9 | CCOP(=O)(OCC)Oc1cc(C)nc(C(C)C)n1 | 99.9 min
10 | COc1ccc([C@@H]2Sc3ccccc3NC(=O)[C@@H]2O)cc1 | 67.5 min
11 | COc1ccc(CCC(C)=O)cc1 | > 120 min
12 | N#CC1C(=O)Nc2scc(-c3ccc(-c4ccccc4O)cc3)c2C1=O (centres undefined) | > 120 min
13 | CN(C)CC#CCCC(=O)C(O)(c1ccccc1)C1CCC1 (centres undefined) | 102 min
14 | CC(C)(C)Oc1ccc(OCC2Cc3ccccc3CN2C(=O)c2cccc3ccccc23)cc1 (centres undefined) | 5.19 min
15 | CNC(=O)c1ccc(N2C(=S)N(c3cnc(C#N)c(C(F)(F)F)c3)C(=O)C23CCC3)cc1F | > 120 min
16 | Clc1ccc(COC(Cn2ccnc2)c2ccc(Cl)cc2Cl)cc1 (centres undefined) | 89.8 min
17 | COc1ccc(Nc2cc(-c3cnc(N)nc3)nc(N3CCOCC3)n2)cn1 | 39.3 min
18 | C#Cc1cccc(Nc2ncnc3cc(OCCOC)c(OCCO)cc23)c1 | > 120 min
19 | Clc1ccccc1-c1nc(-c2ccncc2)no1 | 35.8 min
20 | NC(=O)c1ccc(Cc2c(-c3cccc(-c4ccccc4)c3)[nH]n(-c3nc(C(=O)O)cs3)c2=O)cc1 | > 120 min
21 | O=C(C=Cc1cccc(S(=O)(=O)Nc2ccccc2)c1)NO | > 120 min
22 | CN1C(C)(C)CCCC1(C)C | > 120 min
23 | O=C(NCc1ccco1)c1ccc2c(c1)N(Cc1cccc(Cl)c1)C(=O)c1ccccc1S2=O (centres undefined) | 0.62 min
24 | Cn1nnc2c(C(N)=O)ncn2c1=O | 21.1 min
25 | CCOCc1cc(CN2CCN(c3cccc(C(F)(F)F)c3)CC2)c(O)c2ncccc12 | 12.6 min
26 | Cc1c(C(=O)Nc2cccc(C(F)(F)F)c2)cc(-c2ccccc2)n1CCCN1CCOCC1 | 8.06 min
27 | O=C(NCC1CCN(Cc2cccc(Cl)c2)CC1)[C@@H]1CCCN(c2ncnc3c2nc2n3CCCC2)C1 | 8.65 min

Row | Compound | half-life
28 | CCNc1nc(Cl)nc(NCC)n1 | 59.4 min
29 | O=C(O)CC1CCC(c2ccc(-c3ccc(Nc4ccc(C(F)(F)F)nc4)cn3)cc2)CC1 (centres undefined) | > 120 min
30 | Oc1c(Cl)cc(Cl)c2cccnc12 | 25.2 min
31 | CCOc1ccc(NC(=O)Cn2cc(C(=O)c3cccs3)c3ccccc32)cc1 | 10.5 min
32 | CC[C@@H](C)Nc1cc(C(=O)NC2CC3CC[C@@H](C2)N3c2ccc(C(=O)C3CC3)cn2)c(C)cc1C(N)=O (some centres undefined) | > 120 min
33 | Cc1csc(NC(=O)c2ccc(COc3cccc(Cl)c3)o2)n1 | 14.9 min
34 | CN1c2cc(C(=O)Nc3ccc(S(N)(=O)=O)cc3)ccc2C(=O)N2CCCCC21 (centres undefined) | 32.8 min
35 | C#CCN(Cc1cc2c(=O)[nH]c(C)nc2cc1Br)c1ccc(C(=O)NCc2cccnc2)cc1 | 9.7 min
36 | CCN1CCCC1CNC(=O)c1cc(S(=O)(=O)CC)c(N)cc1OC (centres undefined) | > 120 min
37 | Cc1cc(C(=O)N2CCCCc3ccccc32)ccc1CNC(=O)N1CCC[C@H]1C(=O)N(C)C | 6.54 min
38 | Cc1onc(-c2ccccc2)c1-c1ccc(S(N)(=O)=O)cc1 | > 120 min
39 | O=C(OCC(O)CO)c1ccccc1Nc1ccnc2c(C(F)(F)F)cccc12 (centres undefined) | 34.6 min
40 | Cc1ccc(-c2nc3ccc(C)cn3c2CC(=O)N(C)C)cc1 | > 120 min
41 | CNS(=O)(=O)c1ccc(Cc2c(-c3cccc(-c4ccccc4)c3)[nH]n(-c3nc(C(=O)O)cs3)c2=O)cc1 | > 120 min
42 | O=C(Cn1cnc2onc(-c3ccc(F)cc3)c2c1=O)Nc1cccc(C(F)(F)F)c1 | 40.4 min
43 | COc1ccc(-c2ccc3ncc4c(c3c2)n(-c2ccc(N3CCNCC3)c(C(F)(F)F)c2)c(=O)n4C)cn1 | 36.3 min
44 | Cc1cccc(N2CCN(C(=O)c3cccn3-c3nnc(N4CCCCC4)s3)CC2)c1C | 3.17 min
45 | Cc1nc2c(-c3cnc(N)nc3)nc(N3CCOCC3)nc2n1C(C)C | > 120 min
46 | Nc1nccs1 | 53.7 min
47 | CCN(C(=O)c1sc2cc(OC)ccc2c1Cl)c1ccccc1 | 3.3 min
48 | COc1cc2nc(=NC(=O)c3cccnc3)n3c(c2cc1OC)NCC3 | 45 min
49 | COc1cc(/C=N\NC(=O)c2ccc3c(c2)OCO3)ccc1OCc1ccccc1 | 23.5 min
50 | O=C(C1CCCCC1)N1CC(=O)N2CCCc3ccccc3C2C1 (centres undefined) | 20.8 min
51 | Cc1cccc(C(=O)O)c1O | > 120 min
52 | Cc1c(Cl)ccc2sc(N3CCN(C(=O)CS(=O)(=O)c4ccccc4)CC3)nc12 | 61.2 min
53 | CC(C)C(Br)C(=O)NC(N)=O (centres undefined) | > 120 min
54 | CCCSP(=S)(OCC)Oc1ccc(SC)cc1 (centres undefined) | > 120 min

Row | Compound | half-life
55 | Nc1ccc2cc3ccc(N)cc3nc2c1 | 105 min
56 | Cc1cc(C)c(-n2cc(C)c3c(Cl)nc(C)nc32)c(C)c1 | 10.1 min
57 | Cc1ccc(NC(=O)Cn2c(=O)n(CCC(=O)N3CCc4ccccc4C3)c(=O)c3ccccc32)c(C)c1 | 1.41 min
58 | CCOP(=S)(Oc1cnc(C(C)(C)C)nc1)OC(C)C (centres undefined) | 11.1 min
59 | COc1cc(N2CCOCC2)ccc1NC(=O)c1csc(-c2cccnc2)n1 | 30.2 min
60 | COCCCN1CCC(NC(=O)c2cc(Cl)c(N)c3c2OCC3)CC1 | > 120 min
61 | COc1ccc(-c2ccc3cc(C(=O)O)ccc3c2)cc1C12CC3CC(CC(C3)C1)C2 | 46.1 min
62 | COc1cc2c(NC3CCN(CC4CCCCC4)CC3)nc(N3CCCN(C(C)C)CC3)nc2cc1OCCCN1CCCCC1 | 30 min
63 | O=C(O)c1ccc2[nH]cc(CCCCN3CC=C(c4ccccc4)CC3)c2c1 | > 120 min
64 | C[C@@H](N)c1ccc(C(=O)Nc2ccnc3[nH]ccc23)cc1 | > 120 min
65 | Nc1nc(O)c(C2=C3C(=Nc4ccccc43)C(=O)NCC2)[nH]1 | > 120 min
66 | CCOc1ccc(S(=O)(=O)NCCc2sc(-c3ccc(C)cc3)nc2C)cc1 | 4.09 min
67 | CCc1cc2cc(OC)c(OC)cc2c(Cc2ccccc2)n1 | 8.36 min
68 | CCOc1ccc(NC(=O)CC(C)O)cc1 (centres undefined) | > 120 min
69 | CCCCC(CC)CN=C(N)NC(N)=NCCCCCCN=C(N)NC(N)=NCC(CC)CCCC (centres undefined) | > 120 min
70 | CCCc1ccc(OCC(=O)N2CCN(C(=O)COc3ccc(CCC)cc3OC)CC2)c(OC)c1 | 2.8 min
71 | COC1CCN(C(=O)c2cc(Cc3n[nH]c(=O)c4ccccc34)ccc2F)CC1 | 76.1 min
72 | C[C@@H]1C[C@H]2[C@@H]3CCC4=CC(=O)C=C[C@]4(C)[C@@]3(F)[C@@H](O)C[C@]2(C)[C@H]1C(=O)CO | 57.3 min
73 | CCN1C(=O)NC(c2ccccc2)C1=O (centres undefined) | > 120 min
74 | CNC(=O)c1cc(Oc2ccc(NC(=O)Nc3ccc(Cl)c(C(F)(F)F)c3)cc2)ccn1 | > 120 min
75 | CCCc1nc(C(C)(C)O)c(C(=O)O)n1Cc1ccc(-c2ccccc2-c2nn[nH]n2)cc1 | > 120 min
76 | CN(C)CCN(Cc1ccc(Cl)cc1)c1ccccn1 | 18.8 min
77 | CCOC(=O)NNc1nncc2ccccc12 | 97.1 min
78 | CNP(=O)(OC)Oc1ccc(C(C)(C)C)cc1Cl (centres undefined) | 47.5 min
79 | c1cc(-c2cc(C3CCNCC3)[nH]n2)ccn1 | 72.6 min
